Results as given in PubChem BioAssay AID250 (DTP/NCI, 2004).
Values joined by “and” are separate entries in the source; they are usually repeats but may differ in a detail not shown here. Equal values may be shown once. Inconclusive results and toxic doses are left out.

Test system: BDF1 mice, L1210 leukemia sc, survival T/C
Assay: NCI In Vivo Anticancer Drug Screen. Data for tumor model L1210 Leukemia (subcutaneous) in B6D2F1 (BDF1) mice
Settings: endpoint: median survival time, schedule: Q01DX Z (sc), higher = longer survival
Method in brief: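 Transplantable tumor-bearing mice; survival or tumor size recorded; result = T/C, treated vs vehicle control.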

[1] = dose: 39.0 mg/kg/injection, vehicle: saline
[2] = dose: 65.0 mg/kg/injection, vehicle: saline
[3] = dose: 108.0 mg/kg/injection, vehicle: saline
[4] = dose: 180.0 mg/kg/injection, vehicle: saline
[5] = dose: 300.0 mg/kg/injection, vehicle: saline
[6] = dose: 500.0 mg/kg/injection, vehicle: saline
[7] = dose: 23.0 mg/kg/injection, vehicle: water
[8] = dose: 39.0 mg/kg/injection, vehicle: water
[9] = dose: 65.0 mg/kg/injection, vehicle: methylcellulose (MC)
[10] = dose: 65.0 mg/kg/injection, vehicle: water

Question: CCC1=C(c2ccc(OC)cc2)CCC(C(=O)O)C1C (stereo unspecified) was tested. Which T/C (dose: 14.0 mg/kg/injection, vehicle: steriod suspending solution) did it give?
Answer: 105 % of control

Question: What about the T/C (dose: 23.0 mg/kg/injection, vehicle: steriod suspending solution) of the same compound?
Answer: 100 % of control

Question: And the T/C (dose: 39.0 mg/kg/injection, vehicle: steriod suspending solution)?
Answer: 105 % of control

Question: And the T/C (dose: 65.0 mg/kg/injection, vehicle: steriod suspending solution)?
Answer: 100 % of control

Question: What about the T/C (dose: 108.0 mg/kg/injection, vehicle: steriod suspending solution) of the same compound?
Answer: 100 % of control and 111 % of control

Question: What about the T/C (dose: 180.0 mg/kg/injection, vehicle: steriod suspending solution) of the same compound?
Answer: 100 % of control and 105 % of control

Question: What about the T/C (dose: 300.0 mg/kg/injection, vehicle: steriod suspending solution) of the same compound?
Answer: 100 % of control and 111 % of control

Question: And the T/C (dose: 500.0 mg/kg/injection, vehicle: steriod suspending solution)?
Answer: 111 % of control

Question: What about the T/C (dose: 833.0 mg/kg/injection, vehicle: steriod suspending solution) of the same compound?
Answer: 100 % of control

Question: For CN(N=O)C(=O)NC(C=O)C(O)C(O)C(O)CO (stereo unspecified), which T/C [1] is on record?
Answer: 100 % of control

Question: And the T/C [2]?
Answer: 112 % of control

Question: And the T/C [3]?
Answer: 100 % of control

Question: What about the T/C [4] of the same compound?
Answer: 112 % of control

Question: What about the T/C [5] of the same compound?
Answer: 112 % of control

Question: And the T/C [6]?
Answer: 100 % of control

Question: Which T/C [2] does the source give for CCOC(N)=O here?
Answer: 95 % of control

Question: And the T/C [3]?
Answer: 100 % of control

Question: What about the T/C [4] of the same compound?
Answer: 100 % of control

Question: And the T/C [5]?
Answer: 100 % of control

Question: And the T/C [6]?
Answer: 90 % of control

Question: With OCC1OC(n2cnc3cc(Cl)c(Cl)cc32)C(O)C1O (stereo unspecified) as the compound, how does the T/C (dose: 23.0 mg/kg/injection, vehicle: methylcellulose (MC)) read?
Answer: 95 % of control

Question: And the T/C [7]?
Answer: 95 % of control

Question: What about the T/C (dose: 39.0 mg/kg/injection, vehicle: methylcellulose (MC)) of the same compound?
Answer: 95 % of control

Question: What about the T/C [8] of the same compound?
Answer: 105 % of control

Question: And the T/C [9]?
Answer: 100 % of control

Question: And the T/C [10]?
Answer: 100 % of control

Question: What about the T/C (dose: 108.0 mg/kg/injection, vehicle: methylcellulose (MC)) of the same compound?
Answer: 90 % of control and 100 % of control

Question: What about the T/C (dose: 108.0 mg/kg/injection, vehicle: water) of the same compound?
Answer: 95 % of control

Question: What about the T/C (dose: 180.0 mg/kg/injection, vehicle: methylcellulose (MC)) of the same compound?
Answer: 100 % of control and 105 % of control

Question: And the T/C (dose: 180.0 mg/kg/injection, vehicle: water)?
Answer: 100 % of control

Question: What about the T/C (dose: 300.0 mg/kg/injection, vehicle: methylcellulose (MC)) of the same compound?
Answer: 105 % of control

Question: What about the T/C (dose: 500.0 mg/kg/injection, vehicle: methylcellulose (MC)) of the same compound?
Answer: 100 % of control

Question: C=CC(CN1CC1)OC(C)=O (stereo unspecified) was tested. Which T/C (dose: 2.8 mg/kg/injection, vehicle: saline) did it give?
Answer: 111 % of control

Question: What about the T/C (dose: 4.7 mg/kg/injection, vehicle: saline) of the same compound?
Answer: 122 % of control

Question: What about the T/C (dose: 7.8 mg/kg/injection, vehicle: saline) of the same compound?
Answer: 150 % of control

Question: What about the T/C (dose: 13.0 mg/kg/injection, vehicle: saline) of the same compound?
Answer: 188 % of control

Question: And the T/C (dose: 22.0 mg/kg/injection, vehicle: saline)?
Answer: 155 % of control

Question: And the T/C (dose: 60.0 mg/kg/injection, vehicle: saline)?
Answer: 122 % of control

Question: With CCOS(C)(=O)=O as the compound, how does the T/C (dose: 14.0 mg/kg/injection, vehicle: saline) read?
Answer: 100 % of control

Question: And the T/C (dose: 23.0 mg/kg/injection, vehicle: saline)?
Answer: 95 % of control

Question: What about the T/C [1] of the same compound?
Answer: 100 % of control

Question: What about the T/C [2] of the same compound?
Answer: 90 % of control

Question: What about the T/C [3] of the same compound?
Answer: 95 % of control

Question: What about the T/C [4] of the same compound?
Answer: 90 % of control

Question: O=c1ccn(C2OC(CO)C(O)C2O)c(=O)[nH]1 (stereo unspecified) was tested. Which T/C [2] did it give?
Answer: 100 % of control

Question: What about the T/C [3] of the same compound?
Answer: 100 % of control

Question: And the T/C [4]?
Answer: 95 % of control and 111 % of control

Question: And the T/C [5]?
Answer: 90 % of control and 100 % of control

Question: What about the T/C [6] of the same compound?
Answer: 90 % of control and 100 % of control

Question: What about the T/C (dose: 833.0 mg/kg/injection, vehicle: saline) of the same compound?
Answer: 100 % of control

Question: And the T/C (dose: 1388.0 mg/kg/injection, vehicle: saline)?
Answer: 100 % of control

Question: How did the T/C [7] turn out when COS(C)(=O)=O was run?
Answer: 100 % of control

Question: What about the T/C [8] of the same compound?
Answer: 94 % of control

Question: And the T/C [10]?
Answer: 100 % of control

Question: For ClCCN(CCCl)c1ccc(CCNc2ccnc3cc(Cl)ccc23)cc1, which T/C (dose: 14.0 mg/kg/injection, vehicle: methylcellulose (MC)) is on record?
Answer: 100 % of control

Question: And the T/C [9]?
Answer: 100 % of control
